Source: patent US6423702B1, “PROCESS FOR THE HYDROXYLATION OF AN ACYCLIC OR CYCLIC METHYLENE RADICAL IN THE ALLYLIC POSITION, PHARMACEUTICAL COMPOSITION CONTAINING HYDROXYCHOLESTEROL DERIVATIVES AND UTILIZATION OF SUCH COMPOSITIONS FOR THE PREPARATION OF DRUGS” (priority 1991, dated 2002)

Columns and labels:
[1] = tested on: glioblastomas in the rat cortex (C6 cells); assay: Glioblastomas induced in the brain with C6 cells, liposome treatment at the tumor site; format: in vivo
Procedure: The “in vivo” model proposed by Galli et al., (J. Neurooncology, 7, 299-304, 1989) has been adopted with a few modifications in the number of C6-type cells injected and in the age of the rats. Rats (Wistar male) aged 6 days are anesthetized and placed in a stereotaxic apparatus, the skin of the cranium is opened and the skull pierced at appropriate coordinates (4.5 AP, 3.0 ML, 2.0 mm DV with respect to the lambda, set 0) using a dental drill; 200×10^3 C6 in […] of PBS are then injected over 4 minutes and then the skin sutured. 72 hours later, the rats are operated on again and treated with liposomes containing the 7β-hydroxycholesteryl 3-esters. […]
The rats are sacrificed 8 days after the treatment by […] injection of pentobarbital, perfused with formalin (4%) and the withdrawn brain is post-fixed in formalin (4%) and then in isobutanol and included in paraffin. Sections with a thickness of 10 μm are prepared using a section cutter and, after removing paraffin in toluene, the glioblastomas are detected by staining with Cresyl Violet (0.1% in 0.1 M […] and 0.1 M sodium acetate) and subjected to an image analyzer (IBAS, KONTRON, SAMBA ALCATEL). […]
Quantitative analysis of the lesions thus observed requires the acquisition of images with sequences of echoes of spin having several echoes and recovery times. […]

[2] = tested on: subcutaneous glioblastomas (C6 cells); assay: Subcutaneous tumors induced by inoculating with C6 cells, intratumoral liposome treatment; format: in vivo, rat; settings: 50 μl liposomes with 1 mg PC and 100 μg steroid injected into the tumors; photographed 48 hours afterwards
Procedure: The C6 cells (passage 55-57) are injected subcutaneously at the shoulders at a charge of 10^6 cells/200 μl of […] in rats (26 g) aged 3 weeks according to Ledig et al., (Revue de l'Alcoolisme, 1986, 31, 1-11); when the tumors develop (2 weeks after inoculating with the C6 cells), 50 μl of a suspension of liposomes containing 1 mg of PC and 100 μg of cholesteryl oleate or 7β-OH-cholesteryl oleate are injected into the tumors. The animals are photographed 48 hours afterwards.

[3] = tested on: reactional gliosis (reactive astrocytes); assay: Reactional gliosis after electrolytic lesion of the striatum (brain), GFAP detection; format: in vivo, rat; settings: rats aged 6 days; 2 μl liposomes with 20 μg PC and 2 μg sterol or oxysterol injected into the site of lesion
Procedure: (§1) PC and steroidal derivatives are dissolved in CHCL3/methanol [sic] (2/1 v/v), the solvent evaporated and 1 ml of KCL [sic] (0.15 M) added. The suspension is subjected to ultrasound in an ice bath (5×1 min with an interval of 30 sec, amplitude 18 μm), centrifuged 13,000 g for 20 min, the supernatant withdrawn and concentrated 5 times under nitrogen. BRAIN
Rats aged 6 days are anesthetized with an intraperitoneal injection of imalgene 500 (2 mg/10 g) and valium (0.05 ml/10 g) and then placed in a stereotaxic apparatus in order to be subjected to an electrolytic lesion at the level of the striatum. For this, a dental probe, insulated except at the point, is moved down to the level of the striatum according to the stereotaxic coordinates with respect to the lambda. At this level, a current of 2 mA is applied for 10 secs;
2 μl of a suspension of liposomes containing 20 μg of PC and 2 μg of various sterols or oxysterols are injected into the site of lesion.
(§2) GFAP, specific structural labeler of astrocytes, is detected on paraffin sections by the antibody/antiantibody system to GFAP coupled to the peroxidase.

[4] = tested on: secondary reactional gliosis (reactive astrocytes); assay: Reactional gliosis after complete section of the spinal cord at T8, GFAP detection; format: in vivo, rat; settings: rats 250 g; 5 μl liposomes with 500 μg PC and 50 μg ester injected 0.5 mm downstream of the section
Procedure: as §1
After complete section of the spinal cord at the T8 level in rats weighing 250 g (Sprague, Dawley, EFFA, Credo), 5 μl of a suspension of liposomes containing 500 μg of PC and 50 μg of esters of 7β-OH-CH (C18:0 or C18:1) are injected at 0.5 mm downstream of the section.
as §2

[5] = tested on: HTC cells (rat liver tumoral cells); settings: cited from earlier work
[6] = tested on: lymphoma (mouse RDM4 and YAC-1); settings: mouse RDM4 and YAC-1 lymphoma; cited from earlier work
[7] = tested on: rat liver epithelial cells; settings: cited from earlier work
[8] = tested on: hepatocytes from newborn rats; settings: cited from earlier work
[9] = tested on: transformed astrocytes; settings: cited from earlier work
[10] = tested on: cultured heart cells from newborn rats; settings: cited from earlier work
[11] = tested on: rat fibroblasts originating from the heart; settings: cited from earlier work
[12] = tested on: ascitic tumors, Krebs-II transplantable carcinoma; settings: injected intraperitoneally into mice carrying ascitic tumors; cited from earlier work
[13] = tested on: tumors induced by 7,12-di-methylbenz(α)anthracene; settings: female Sprague-Dawley rats; cited from earlier work

**Q.** Which “size of the tumors (Cresyl Violet staining)” value ([1]; 40 μg in PC/GM1 liposomes injected 72 hours after C6 inoculation, sacrifice 8 days after treatment) does the source give for `CCCCCCCC/C=C\CCCCCCCC(=O)O[C@H]1CC[C@@]2(C)C(=C[C@H](O)[C@H]3[C@@H]4CC[C@H]([C@H](C)CCCC(C)C)[C@@]4(C)CC[C@@H]32)C1` [7β-OH-CH (C18:1), 7β-hydroxycholesteryl 3-oleate] here?
**A.** The value was “significant reduction”.

**Q.** And the “monitoring of the tumor over time by NMR imagery” value ([1]; same glioblastoma induced in the cortex of a rat, during treatment)?
**A.** Its value is “regression”.

**Q.** What about the “effect on the subcutaneous tumor” value [2] of the same compound?
**A.** The value was “significant regression”.

**Q.** And the “reactional gliosis in the CNS” value [3]?
**A.** Its value is “high attenuation”.

**Q.** And the “secondary reactional gliosis at the spinal cord lesion site” value [4]?
**A.** Its value is “reduces”.

**Q.** Which results are given for `CC(C)CCC[C@@H](C)[C@H]1CC[C@H]2[C@@H]3[C@@H](O)C=C4C[C@@H](O)CC[C@]4(C)[C@H]3CC[C@]12C` [7β-hydroxycholesterol]?
**A.** cytotoxic activity against cultured cells [5]: cytotoxic activity; cytotoxic activity against cultured cells [6]: cytotoxic activity; cytotoxic activity against cultured cells [7]: cytotoxic activity; effect on cells with weaker potential for division [8]: not detrimentally affected; metabolism to esters of fatty acids [9]: metabolized; effect on cells with weaker potential for division [10]: not detrimentally affected; cytotoxic activity against cultured cells [11]: cytotoxic activity

**Q.** With `CC(C)CCC[C@@H](C)[C@H]1CC[C@H]2[C@@H]3CC=C4C[C@@H](O)CC[C@]4(C)[C@H]3CC[C@]12C` [CH, cholesterol] as the compound, how does the “reactional gliosis in the CNS” value [3] read?
**A.** Its value is “ineffective”.

**Q.** For `CC(C)CCC[C@@H](C)[C@H]1CC[C@H]2[C@@H]3[C@@H](OC(=O)CCC(=O)O)C=C4C[C@@H](OC(=O)CCC(=O)O)CC[C@]4(C)[C@H]3CC[C@]12C` [7β-hydroxycholesterol 3,7-bis(hemisuccinate)], which antitumoral activity [12] is on record?
**A.** The antitumoral activity was “antitumoral activity”.

**Q.** Which “reactional gliosis in the CNS” value [3] does the source give for `CCCCCCCCCCCCCCCC(=O)O[C@H]1CC[C@@]2(C)C(=CC[C@H]3[C@@H]4CC[C@H]([C@H](C)CCCC(C)C)[C@@]4(C)CC[C@@H]32)C1` [CH (C16:0), cholesteryl palmitate] here?
**A.** Its value is “ineffective”.

**Q.** For `CC(C)CC[C@@H](O)[C@@H](C)[C@H]1CC[C@H]2[C@@H]3[C@@H](O)C=C4C[C@@H](O)CC[C@]4(C)[C@H]3CC[C@]12C` [(22 R)-cholest-5-ene-3β,7β22-triol], which development of tumors [13] is on record?
**A.** Its development of tumors is “effectively reduced”.

**Q.** Which “effect on the subcutaneous tumor” value [2] does the source give for `CCCCCCCC/C=C\CCCCCCCC(=O)O[C@H]1CC[C@@]2(C)C(=CC[C@H]3[C@@H]4CC[C@H]([C@H](C)CCCC(C)C)[C@@]4(C)CC[C@@H]32)C1` [CH (C18:1), cholesteryl oleate] here?
**A.** Its value is “practically no effect”.
